What was measured:
[1] = tested on: Met, ERBB2, CCND1, PTEN, PARP1, GSK3B; assay: RPPA with STRING network analysis; type: cell-based, human; conditions: peptide at 3 μM
Protocol: growth and stemness was further supported by the addition of laminin extracellular matrix (Cultrex 3446-005-01, 4-10 mg/mL) to the growth media and to create pre-coated flasks/384w plates. Cells were cultured in T75 cm2 flasks and passaged as follows: Glioma stem cells generally grow slowly (~60hrs doubling time, excepting GCGR-E57 cells ~24hrs) and lag phase was exacerbated by sparse seeding. Cell confluence is generally ~80 -90% prior to passaging, whereby the culture media was aspirated, the cells washed (PBS) and Accutase solution (Sigma A6964, 1 mL) was added to detach the cells, which were then incubated at 37 °C for <5 minutes. Cells were resuspended in media and centrifuged for 3 minutes at 300 × g. Resuspended cells were typically split 1:5, 1:8 (GCGR-E57 cells) and 1:2, 1:4 for the remainder of cell lines, depending on requirements . Cells were passaged every 4-7 days to maintain health and growth and discarded after 3 months, whereupon a fresh batch of cells […]
Culture media was aspirated and cells washed with wash media. […] A 10 μL sample of the cell suspension was pipetted onto the reading surface of a DeNovix CellDrop automated cell counter and the reading was used to dilute the suspension in complete media to 250,000 cells/mL. […]
The cell pellet preparation was performed on ice. […] The supernatant was aspirated, and the pellets were stored at -80 °C until ready for RPPA. […]

GCGR-E21 = type: cell-based, human; conditions: 72 h
Protocol: Peptides were tested in an automated image-based high-content[42] cell painting[43],[44] assay that was originally developed to explore the mechanism of action of pharmacological and genetic perturbations within cells,[45] as well as a live cell imaging assay against six patient-derived glioblastoma cell lines (GCGR-E13, GCGR-E28, GCGR-E21, GCGR-E57, GCGR-E31, and GCGR-E34), covering classical, mesenchymal, and proneural subtypes, respectively (see Methods and Figure 1B–D), along with a healthy human fetal neuronal stem cell line (GCGR-NS9FB_B).
Cell survival was quantified by nuclei counts from the Hoechst dye-stained nuclei and IC50 values calculated along with 95% confidence intervals (Figure 1B; see Table S2 for full details). […]
High Content Phenotypic Screening assays
Cell lines (glioma stem cell lines and normal foetal neural stem cells) were seeded on laminin (10 µg/mL) coated 384-well plates (Greiner Bio-One, 781091) at 1,000 cells/well and incubated overnight at 37 °C and 5% CO2. Aqueous peptide solutions (10 mM) were further diluted to 1 mM in water containing 10 % glycerol and 0.01 % TX-100. […]
The cells were placed in an IncuCyte live cell imager (Essen BioScience) and imaged every three hours for 72 hours. Prior to fixation, the plates were removed from the IncuCyte and stained with Mitrotracker DeepRed (Invitrogen, M22426, 300 nM, 30 minutes). Cells were then fixed using 4 % formaldehyde and permeabilized with 0.1 % TX-100 in PBS. The cells were stained with ‘Cell Painting’ […]
assay reagents1: Hoechst 33342 (10 mg/mL stock, Molecular Probes, 1:5000), SYTO14 […]
BSA/PBS. The plates were imaged using an ImageXpress high content microscope (Molecular Devices). Cells were imaged with a 20× objective, covering 6 fields-of-view in each well. The data was then analyzed using a custom CellProfiler software pipeline using the University of Edinburgh high performance computing cluster. Dose response plots were calculated using HC StratomineR (corelifeanalytics.com). Nuclei count data was analyzed separately to generate cell survival metrics (normalized to aqueous glycerol/TX -100 control). […]

## H-RRRRRCQWW-NH2 [Peptide 2]
[1]
  proteins with decreased expression (RPPA, STRING network analysis): PTEN, PARP1, GSK3B
  proteins with increased expression (RPPA, STRING network analysis): Met, ERBB2, CCND1
GCGR-E21
  IC50: 4.8 µM
